Publication PMC6829536 (International Journal of Molecular Sciences, 2019)

Experiments:
L98A CaFADS = molecular target: T1, L98A CaFADS (Corynebacterium ammoniagenes, UniProt Q59263, L98A); test: biochemical; type: biochemical
T1 construct: made in house; host or cells: E. coli BL21(DE3)
Protocol: (§1) Reactions were initiated by the addition of ~20 nM of enzyme. After 1 min incubation at 25 °C, the reactions were stopped by boiling the mixtures for 5 min. The composition of flavins in the supernatant was determined using an Alliance HPLC system (Waters, Milford, MA, USA) equipped with a 2707 autosampler and a HSST3 column (4.6 × 150 mm, 3.5 µm, Waters) preceded by a pre-column (4.6 × 20 mm, 3.5 µm, Waters). The chromatography was developed at 1 mL/min with a 6 min isocratic program of methanol 40% (v/v) in 5 mM ammonium acetate (pH 6.0). Detection of flavins was carried out using a 2475 Multi λ fluorescence detector (Waters), excitation wavelength of 470 nm and emission wavelength of 530 nm. […] The flavinic products of the reaction were identified by their retention times and quantified through their corresponding standard curves obtained under the same conditions. Controls containing free flavins in the absence of the enzyme were treated similarly to reaction samples to discard flavin degradation during RFK activity determination. […] In case of inhibition, the experimental data were fitted to a model describing the substrate inhibition of a bi-substrate mechanism. In these situations, errors in apparent Km and kcat (^appKm and ^appkcat) increased with the inhibition constant (Ki) value getting closer to Km^S. Reaction mixtures were evaluated in triplicates, and final results are expressed as the standard error of the fitted value (value ± SE).

L98K CaFADS = molecular target: T2, L98K CaFADS (Corynebacterium ammoniagenes, UniProt Q59263, L98K); test: biochemical; type: biochemical
T2 construct: made in house; host or cells: E. coli BL21(DE3)
Protocol: as §1

L98W CaFADS = molecular target: T3, L98W CaFADS (Corynebacterium ammoniagenes, UniProt Q59263, L98W); test: biochemical; type: biochemical
T3 construct: made in house; host or cells: E. coli BL21(DE3)
Protocol: as §1

P56A/P58A CaFADS = molecular target: T4, P56A/P58A CaFADS (Corynebacterium ammoniagenes, UniProt Q59263, P56A/P58A); test: biochemical; type: biochemical
T4 construct: made in house; host or cells: E. coli BL21(DE3)
Protocol: as §1

P56W CaFADS = molecular target: T5, P56W CaFADS (Corynebacterium ammoniagenes, UniProt Q59263, P56W); test: biochemical; type: biochemical
T5 construct: made in house; host or cells: E. coli BL21(DE3)
Protocol: as §1

P58W CaFADS = molecular target: T6, P58W CaFADS (Corynebacterium ammoniagenes, UniProt Q59263, P58W); test: biochemical; type: biochemical
T6 construct: made in house; host or cells: E. coli BL21(DE3)
Protocol: as §1

CaFADS variants = test: Qualitative detection of RFK, FMNAT and FADpp activities by TLC; type: biochemical, Corynebacterium ammoniagenes; details: all variants, 200 nM enzyme, 50 μM flavin, 0.2 mM ATP, 10 mM MgCl2, pH 7.0, 30 min and 2 h
Protocol: RFK and FMNAT activities were qualitatively assayed by the incubation of enzymes with substrates and separation of flavins (substrates and products) from reaction mixtures using TLC on Silica Gel SIL-G-25 plates (20 × 20 cm, thickness 0.25 mm) as previously described. […] Reactions were stopped by boiling the preparations for 5 min. Flavin spots were visualized under UV light.

WT CaFADS = molecular target: T7, WT CaFADS (Corynebacterium ammoniagenes, UniProt Q59263); details: saturating ATP, 20 mM PIPES, 0.8 mM MgCl2, pH 7.0, 25 °C, cited from earlier work
T7 construct: made in house; host or cells: Escherichia coli

Work on `Cc1cc2nc3c(=O)[nH]c(=O)nc-3n(C[C@H](O)[C@H](O)[C@H](O)CO)c2cc1C` [RF, Riboflavin] yielded a Ki (L98A CaFADS) of 32 ± 15 µM, a kcat (L98A CaFADS; L98A CaFADS, RF varied, saturating ATP, apparent value, 20 mM PIPES, 0.8 mM MgCl2, pH 7.0, 25 °C) of 2.3 ± 0.433 s⁻¹ and a Ki (L98K CaFADS) of 41 ± 13 µM. For the same compound, the kcat (L98K CaFADS; L98K CaFADS, RF varied, saturating ATP, apparent value, 20 mM PIPES, 0.8 mM MgCl2, pH 7.0, 25 °C) was 4.13 ± 0.567 s⁻¹, the Ki (L98W CaFADS) was 46 ± 20 µM and the kcat (L98W CaFADS; L98W CaFADS, RF varied, saturating ATP, apparent value, 20 mM PIPES, 0.8 mM MgCl2, pH 7.0, 25 °C) was 2.33 ± 0.35 s⁻¹. It also gave a Ki (P56A/P58A CaFADS) of 54 ± 29 µM, a kcat (P56A/P58A CaFADS; P56A/P58A CaFADS, RF varied, saturating ATP, apparent value, 20 mM PIPES, 0.8 mM MgCl2, pH 7.0, 25 °C) of 1.3 ± 0.2 s⁻¹ and a Ki (P56W CaFADS) of 6.5 ± 1.9 µM. The “decrease of Km^RF relative to WT” value (P56W CaFADS; P56W CaFADS vs WT) was “up to 30 fold”, the kcat (P56W CaFADS; P56W CaFADS, RF varied, saturating ATP, apparent value, 20 mM PIPES, 0.8 mM MgCl2, pH 7.0, 25 °C) was 0.75 ± 0.083 s⁻¹ and the Ki (P58W CaFADS) was 39 ± 21 µM. For the same compound, the kcat (P58W CaFADS; P58W CaFADS, RF varied, saturating ATP, apparent value, 20 mM PIPES, 0.8 mM MgCl2, pH 7.0, 25 °C) was 1.63 ± 0.317 s⁻¹, the “RFK activity (transformation of RF), qualitative” value (CaFADS variants) was “All variants kept the RFK activity” and the Ki (WT CaFADS; RF substrate inhibition) was 4.9 ± 3.9 µM. The Km (WT CaFADS; RF varied, apparent value, read-out: Km^RF) was 12 ± 3 µM and the kcat (WT CaFADS; RF varied, apparent value) was 6.8 ± 3.33 s⁻¹.
